According to US9416115B2, “Fused heterocyclic compounds as ion channel modulators” (Gilead Sciences, Inc., priority 2013, dated 2016):
Read-outs that look alike come from different tables or passages of the source.

Assays:
[1] = target: wild-type human cardiac sodium channel, hNav1.5 (Homo sapiens, UniProt Q14524); experiment: Peak INa screening assay (tonic block and use-dependent block); type: cell-based
In short: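 Whole-cell automated patch clamp, 23-25° C, on hNav1.5 alpha-only HEK293 cells with Na+ lowered to 40 mM by choline. Block measured after two additions of 1 or 3 μM compound and 200 s wait: tonic at 0.1 Hz, use-dependent at 50th pulse (−20 mV, 20 ms, 3 Hz) from −100 mV, relative to drug-free, rundown corrected.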

hNav1.1 (SCN1A) = hNav1.1 (SCN1A) (Homo sapiens, UniProt P35498); experiment: Use-dependent inhibition of the CNS Nav1.1 sodium channel; type: cell-based; details: use-dependent block, 25 Hz, pulse 20, read-out: Nav1.1 UDB 25 Hz 10 uM
Description: HEK-293 cells stably expressing wild-type (WT) hNav1.1 (SCN1A, NCBI# AB09354) were obtained from Millipore (Cat. # CYL3009) were used to record INa. Cells are maintained with standard tissue culture procedures and stable channel expression is maintained with 400 ug/mL G418 in the culture medium. Unless otherwise noted, all reagents are purchased from Sigma-Aldrich (St Louis, Mo., U.S.A.).
Assays measuring Use-Dependent Block (UDB) of Nav1.2 are performed on an automated electrophysiology platform, QPatch 16X or QPatch HT (Sophion Bioscience, Copenhagen, Denmark), using the whole cell patch clamp technique to measure currents through the cell membrane. Series resistance compensation is set to 100% and series resistance and whole-cell compensation are performed automatically. Currents stored in the Sophion Bioscience Oracle database (Sophion Bioscience, Copenhagen, Denmark). Analysis is performed using QPatch Assay software and data are compiled in Excel 2010 (Microsoft, Seattle, Wash., U.S.A.).
The internal (pipette) solution consists of (in mM) 105 CsF, 10 NaF, 20 CsCl, 2 EGTA, 10 HEPES, 10 Dextrose with a pH of 7.35 and osmolarity of 300 mOsmol/kg. The external (bath) solution contains in (mM): 145 NaCl, 4 KCl, 1.8 CaCl2, 1 MgCl2, 10 dextrose, 10 HEPES, with a pH of 7.35 and osmolarity of 310 mOsmol/kg. Experiments are carried out at 23-25° C.
Compound stocks are routinely made by the Gilead Sample Bank in vials to 10 mM in dimethyl sulfoxide (DMSO). In some cases, when compounds are not soluble in DMSO, they are made in 100% ethanol. Stocks are sonicated as necessary. […]
Cells are allowed to stabilize for 10 min after establishment of the whole-cell configuration before current is measured. The test compound is applied 2 times at 60 second intervals. After the second compound addition, a 200 second wait period was imposed to allow for equilibration. Leak currents are subtracted by using an online P/4 procedure and all currents are low-pass Bessel filtered at 5 kHz and digitized at […].
Use-dependent block of Nav1.2 peak current is measured during pulse number 20 of a voltage pulse train (0 mV, 20 ms, 20 pulses, 25 Hz) from a holding potential of −120 mV. Currents are normalized to the peak current recorded in response to the first pulse in each frequency train. The voltage protocol for UDB was performed in the absence and presence of compound and percentage inhibition was calculated with respect to the compound free condition. Results are presented as mean percentage inhibition and data analysis is performed using QPatch Assay Software 4.0, and Excel 2002 (Microsoft, Seattle, Wash., U.S.A.).

[2] = tonic block of Peak INa, 0.1 Hz, holding -100 mV, read-out: Peak TB 3 uM
[3] = use-dependent block of Peak INa, 3 Hz, pulse 50, read-out: Peak UDB 3 Hz 3 uM

Chain of wild-type human cardiac sodium channel, hNav1.5 (Q14524 whole entry): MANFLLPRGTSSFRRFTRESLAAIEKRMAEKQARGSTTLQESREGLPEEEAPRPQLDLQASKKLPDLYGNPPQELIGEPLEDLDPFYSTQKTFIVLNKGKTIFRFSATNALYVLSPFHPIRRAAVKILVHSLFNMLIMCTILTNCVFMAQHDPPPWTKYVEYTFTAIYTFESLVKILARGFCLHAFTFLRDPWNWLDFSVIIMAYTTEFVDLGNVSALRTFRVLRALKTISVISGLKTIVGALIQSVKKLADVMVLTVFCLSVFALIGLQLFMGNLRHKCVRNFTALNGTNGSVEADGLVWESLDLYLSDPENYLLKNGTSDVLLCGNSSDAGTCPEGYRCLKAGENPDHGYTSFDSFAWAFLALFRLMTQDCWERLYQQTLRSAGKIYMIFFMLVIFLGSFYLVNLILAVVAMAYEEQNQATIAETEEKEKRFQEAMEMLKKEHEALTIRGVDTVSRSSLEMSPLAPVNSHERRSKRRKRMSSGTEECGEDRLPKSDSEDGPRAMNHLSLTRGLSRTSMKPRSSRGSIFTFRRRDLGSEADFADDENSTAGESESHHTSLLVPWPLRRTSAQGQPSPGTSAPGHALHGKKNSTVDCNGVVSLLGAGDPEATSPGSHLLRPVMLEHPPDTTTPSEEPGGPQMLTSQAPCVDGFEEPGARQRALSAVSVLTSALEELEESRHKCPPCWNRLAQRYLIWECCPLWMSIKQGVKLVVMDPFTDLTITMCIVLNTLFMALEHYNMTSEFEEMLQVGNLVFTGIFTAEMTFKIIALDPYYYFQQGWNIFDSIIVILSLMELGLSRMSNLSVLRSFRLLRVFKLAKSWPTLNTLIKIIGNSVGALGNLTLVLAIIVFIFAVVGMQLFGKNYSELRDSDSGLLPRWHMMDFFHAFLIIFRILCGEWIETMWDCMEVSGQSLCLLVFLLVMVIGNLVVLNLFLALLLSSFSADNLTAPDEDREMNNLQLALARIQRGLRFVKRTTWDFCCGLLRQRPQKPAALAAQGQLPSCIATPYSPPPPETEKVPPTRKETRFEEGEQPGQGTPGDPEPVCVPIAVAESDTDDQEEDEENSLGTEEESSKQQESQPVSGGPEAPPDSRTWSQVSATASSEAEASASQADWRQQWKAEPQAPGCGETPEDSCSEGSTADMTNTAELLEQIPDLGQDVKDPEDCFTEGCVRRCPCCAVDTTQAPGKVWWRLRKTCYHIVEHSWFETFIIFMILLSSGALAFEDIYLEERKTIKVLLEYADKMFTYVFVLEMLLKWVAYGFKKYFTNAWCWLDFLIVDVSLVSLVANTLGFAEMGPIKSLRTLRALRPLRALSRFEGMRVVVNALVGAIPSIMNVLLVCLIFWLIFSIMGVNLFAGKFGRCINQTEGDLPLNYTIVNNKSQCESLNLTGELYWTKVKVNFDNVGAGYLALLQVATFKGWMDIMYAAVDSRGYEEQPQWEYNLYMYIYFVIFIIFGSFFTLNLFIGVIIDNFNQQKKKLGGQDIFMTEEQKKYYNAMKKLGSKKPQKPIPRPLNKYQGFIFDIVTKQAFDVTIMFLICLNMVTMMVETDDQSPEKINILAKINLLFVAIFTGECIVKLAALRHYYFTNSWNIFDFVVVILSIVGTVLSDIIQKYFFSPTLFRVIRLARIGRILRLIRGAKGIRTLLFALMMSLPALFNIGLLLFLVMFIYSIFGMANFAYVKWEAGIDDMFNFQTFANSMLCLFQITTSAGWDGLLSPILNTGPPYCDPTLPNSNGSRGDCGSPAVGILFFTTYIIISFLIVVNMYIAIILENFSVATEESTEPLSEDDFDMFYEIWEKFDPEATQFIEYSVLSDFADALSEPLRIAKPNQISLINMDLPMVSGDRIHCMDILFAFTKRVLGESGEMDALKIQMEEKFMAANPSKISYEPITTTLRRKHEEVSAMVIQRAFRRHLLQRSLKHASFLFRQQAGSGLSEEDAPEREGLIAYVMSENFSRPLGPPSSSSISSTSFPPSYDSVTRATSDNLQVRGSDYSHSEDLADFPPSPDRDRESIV

| SMILES | inhibition at 3 µM [1, 2] [%] | inhibition at 3 µM [1, 3] [%] | inhibition at 10 µM (hNav1.1 (SCN1A)) [%] |
| --- | --- | --- | --- |
| O=C1CCCN1CCNc1noc2ccc(-c3ccc(OC(F)(F)F)cc3)cc12 [Example 135, 1-(2-((5-(4-(trifluoromethoxy)phenyl)benzo[d]isoxazol-3-yl)amino)ethyl)pyrrolidin-2-one] | 29.3 | 18 | 87.2 |
| Cc1cc(-c2ccc3onc(OCc4ncccn4)c3c2)ccc1OC(F)(F)F [Example 7, 5-(3-methyl-4-(trifluoromethoxy)phenyl)-3-(pyrimidin-2-ylmethoxy)benzo[d]isoxazole] | 16.3 | < 5 | < 5 |
| FC(F)(F)Oc1ccc(-c2ccc3onc(NCC4CC4)c3c2)cc1 [Example 128, N-(cyclopropylmethyl)-5-(4-(trifluoromethoxy)phenyl)benzo[d]isoxazol-3-amine] | 17.3 | < 5 | < 5 |
| CC(COc1noc2ccc(-c3ccc(OC(F)(F)F)cc3)cc12)n1cccn1 (stereo not drawn) [Example 68, 3-(2-(1H-pyrazol-1-yl)propoxy)-5-(4-(trifluoromethoxy)phenyl)benzo[d]isoxazole] | 10.5 | < 5 | < 5 |
| FC(F)(F)Oc1ccc(-c2ccc3onc(NCCn4cncn4)c3c2)cc1 [Example 137, N-(2-(1H-1,2,4-triazol-1-yl)ethyl)-5-(4-(trifluoromethoxy)phenyl)benzo[d]isoxazol-3-amine] | 43.9 | 17.4 | 82.6 |
| Fc1cc(-c2ccc(OC(F)(F)F)cc2)cc2c(OCc3nnc(C4CC4)o3)noc12 [Example 104, 3-((5-cyclopropyl-1,3,4-oxadiazol-2-yl)methoxy)-7-fluoro-5-(4-(trifluoromethoxy)phenyl)benzo[d]isoxazole] | 23.6 | 19.8 | 53.1 |
| O=C1NCC[C@H]1Oc1noc2ccc(-c3ccc(OC(F)(F)F)cc3)cc12 [Example 72, (R)-3-((5-(4-(trifluoromethoxy)phenyl)benzo[d]isoxazol-3-yl)oxy)pyrrolidin-2-one] | 17.7 | 10.8 | 78.1 |
| Cc1cn(-c2noc3ccc(-c4ccc(OC(F)(F)F)cc4)cc23)cn1 [Example 139, 3-(4-methyl-1H-imidazol-1-yl)-5-(4-(trifluoromethoxy)phenyl)benzo[d]isoxazole] | 15.6 | < 5 | 8.8 |
| FC(F)(F)Oc1ccc(-c2ccc3onc(OC[C@H]4COCCN4)c3c2)cc1 [Example 114, (R)-3-(morpholin-3-ylmethoxy)-5-(4-(trifluoromethoxy)phenyl)benzo[d]isoxazole] | 43.4 | 33.3 | 87.1 |
| Cc1nnc(COc2noc3ccc(-c4ccc(OC(F)(F)F)cc4)cc23)o1 [Example 99, 3-((5-methyl-1,3,4-oxadiazol-2-yl)methoxy)-5-(4-(trifluoromethoxy)phenyl)benzo[d]isoxazole] | 55.6 | < 5 | 30 |
| Cc1cc(-c2ccc(OC(F)(F)F)cc2)cc2c(OCc3cn(C)nn3)noc12 [Example 87, 7-methyl-3-((1-methyl-1H-1,2,3-triazol-4-yl)methoxy)-5-(4-(trifluoromethoxy)phenyl)benzo[d]isoxazole] | 54.7 | 39 | 90.8 |
| FC(F)(F)Oc1ccc(-c2ccc3onc(-n4cnc(-c5ccccc5)c4)c3c2)cc1 [Example 142, 3-(4-phenyl-1H-imidazol-1-yl)-5-(4-(trifluoromethoxy)phenyl)benzo[d]isoxazole] | 15.6 | 13.9 | 59 |
| COc1cc2onc(OCc3ncccn3)c2cc1-c1ccc(OC(F)(F)F)c(C)c1 [Example 14, 6-methoxy-5-(3-methyl-4-(trifluoromethoxy)phenyl)-3-(pyrimidin-2-ylmethoxy)benzo[d]isoxazole] | 23.8 | 6.4 | 34.5 |
| CC(=O)N1CCOC[C@H]1COc1noc2ccc(-c3ccc(OC(F)(F)F)cc3)cc12 [Example 115, (S)-1-(3-(((5-(4-(trifluoromethoxy)phenyl)benzo[d]isoxazol-3-yl)oxy)methyl)morpholino)ethan-1-one] | 19.8 | 18.3 | 76.4 |
| C[C@H](COc1noc2ccc(-c3ccc(OC(F)(F)F)cc3)cc12)N1CCCC1=O [Example 119, (R)-1-(1-((5-(4-(trifluoromethoxy)phenyl)benzo[d]isoxazol-3-yl)oxy)propan-2-yl)pyrrolidin-2-one] | 36.1 | 6.4 | 56.3 |
| CCN(CC)C(=O)COc1noc2ccc(-c3ccc(OC(F)(F)F)cc3)cc12 [Example 150, N,N-diethyl-2-((5-(4-(trifluoromethoxy)phenyl)benzo[d]isoxazol-3-yl)oxy)acetamide] | 58.5 | 9.3 | 62.8 |
| CC(C)(C)c1cn(-c2noc3ccc(-c4ccc(OC(F)(F)F)cc4)cc23)cn1 [Example 143, 3-(4-(tert-butyl)-1H-imidazol-1-yl)-5-(4-(trifluoromethoxy)phenyl)benzo[d]isoxazole] | 39.8 | 11.2 | 66.6 |
| O=C1OCCN1CCOc1noc2ccc(-c3ccc(OC(F)(F)F)cc3)cc12 [Example 75, 3-(2-((5-(4-(trifluoromethoxy)phenyl)benzo[d]isoxazol-3-yl)oxy)ethyl)oxazolidin-2-one] | 36.9 | < 5 | 34.2 |
| FC(F)(F)Oc1cccc(-c2ccc3onc(OCc4ncccn4)c3c2)c1 [Example 10, 3-(pyrimidin-2-ylmethoxy)-5-(3-(trifluoromethoxy)phenyl)benzo[d]isoxazole] | 16.4 | 5.7 | < 5 |
| CC(C)[C@@H](COc1noc2ccc(-c3ccc(OC(F)(F)F)cc3)cc12)N1CCCC1=O [Example 120, (S)-1-(3-methyl-1-((5-(4-(trifluoromethoxy)phenyl)benzo[d]isoxazol-3-yl)oxy)butan-2-yl)pyrrolidin-2-one] | 35.2 | 6.6 | 68.9 |
| Nc1noc2ccc(-c3ccc(OC(F)(F)F)cc3)cc12 [Example 147, 5-(4-(trifluoromethoxy)phenyl)benzo[d]isoxazol-3-amine] | 26 | 3 | 32 |
| Cc1cc(COc2noc3ccc(-c4ccc(OC(F)(F)F)cc4)cc23)on1 [Example 102, 3-((3-methylisoxazol-5-yl)methoxy)-5-(4-(trifluoromethoxy)phenyl)benzo[d]isoxazole] | 27.8 | 7.7 | < 5 |
| Cc1ncn(-c2noc3ccc(-c4ccc(OC(F)(F)F)cc4)cc23)n1 [Example 141, 3-(3-methyl-1H-1,2,4-triazol-1-yl)-5-(4-(trifluoromethoxy)phenyl)benzo[d]isoxazole] | 17.8 | < 5 | 31.5 |
| CC(C)[C@H](N)COc1noc2ccc(-c3ccc(OC(F)(F)F)cc3)cc12 [Example 118, (S)-3-methyl-1-((5-(4-(trifluoromethoxy)phenyl)benzo[d]isoxazol-3-yl)oxy)butan-2-amine] | 88.8 | 56.1 | 89.4 |
| Fc1cccnc1COc1noc2ccc(-c3ccc(OC(F)(F)F)cc3)cc12 [Example 94, 3-((3-fluoropyridin-2-yl)methoxy)-5-(4-(trifluoromethoxy)phenyl)benzo[d]isoxazole] | 17.1 | < 5 | < 5 |
